{"source": "patent US6451797B1", "about": "“Muscarinic antagonists” (priority 1998, dated 2002)", "note": "Structures can show the parent of a compound that is named as a salt.", "data": [{"values": [{"compound": "C[C@@H]1CN(C2CCN(C(=O)c3cccc4c(F)cc(F)cc34)CC2)CCN1[C@@H](C)c1ccc(S(=O)(=O)c2ccc3c(c2)OCO3)nc1", "melting point": "172 to 174 °C"}, {"compound": "C[C@@H]1CN(C2CCN(C(=O)c3cccc(Cl)c3N)CC2)CCN1[C@@H](C)c1ccc(S(=O)(=O)c2ccc3c(c2)OCO3)nc1", "melting point": "184 to 186 °C"}, {"compound": "C[C@@H]1CN(C2CCN(C(=O)c3ccccc3N)CC2)CCN1[C@@H](C)c1ccc(S(=O)(=O)c2ccc3c(c2)OCO3)nc1", "melting point": "187 to 188 °C"}, {"compound": "C[C@@H]1CN(C2CCN(C(=O)c3cccc4cccnc34)CC2)CCN1[C@@H](C)c1ccc(S(=O)(=O)c2ccc3c(c2)OCO3)nc1", "melting point": "174 °C"}, {"compound": "Cc1cccc(C)c1C(=O)N1CCC(N2CCN([C@@H](C)c3ccc(S(=O)(=O)c4ccc5c(c4)OCO5)nc3)[C@H](C)C2)CC1", "melting point": "165 °C"}, {"compound": "CNc1ccccc1C(=O)N1CCC(N2CCN(Cc3ccc(S(=O)(=O)c4cccc(C)c4)nc3)[C@H](C)C2)CC1", "note": "(as salt: HCl)", "melting point": "144 to 148 °C (dec.)"}]}]}
